Consider nine molecules from patent publication US6511817B1, “Methods and device for in vitro detection and characterization of psychoactives using analysis of repetitive electrical activity in a neuronal sample” (Matsushita Electric Industrial Co., Ltd., priority 1999, dated 2003).

Entries after “also recorded” stand apart in the source; their conditions may differ.

What all share (format): cell-based, Sprague-Dawley rat
Assay [1] deals with hippocampal slice. The assay can be described thus: Effect of bath-applied drugs on carbachol-induced beta waves in hippocampal slices on a 64-electrode MED array, FFT analysis. The following applies: for power within the 20 Hz band / shift in the peak: 10 μM Ampakine after carbachol. An excerpt:
(§1) The general procedures for the preparation of the Multi-Electrode Dish (Matsushita Electric Industrial Co. Ltd., Osaka, Japan: “the MED probe”) were described above. Procedures for the MED probe preparation are also described by Oka et al. […]. The device has an array of 64 planar microelectrodes, each having a size of 50×50 μm, arranged in an 8 by 8 pattern. Probes come with two types of interpolar distance, 150 μm (Panasonic: MED-P515AP) and 450 μm (Panasonic: MED-P545AP).
(§2) To provide sufficient adhesion of the neuronal sample slice to the MED surface, the surface of the MED probe was treated with 0.1% polyethylenimine (Sigma: P-3143) in 25 mM borate buffer, pH 8.4, for 8 hours at room temperature. The probe surface was rinsed 3 times with sterile distilled water. The probe (chamber) was then filled with DMEM/F-12 mixed medium, containing 10% fetal bovine serum (GIBCO: 16141-079) and 10% horse serum (GIBCO: 16050-122), for at least 1 hour at 37° C. DMEM/F-12 mixed medium is a 1:1 mixture of Dulbecco's Modified Eagle's Medium and Ham's F-12 (GIBCO: D/F-12 medium, 12400-024), supplemented with N2 supplement (GIBCO: 17502-014) and hydrocortisone (20 nM, Sigma, H0888).
(§3) A 17-24 day old Sprague-Dawley rat was sacrificed by decapitation after anesthesia using halothane (2-Bromo-2 chloro-1,1,1 -trifluoroethane, Sigma: B4388), and the whole brain was removed carefully. The brain was immediately soaked in ice-cold, oxygenated preparation buffer of the following composition (in mM): 124 NaCl, 26 NaHCO3, 10 glucose, 3 KCl, 1.25 NaH2PO4, 2 CaCl2, 2 MgSO4, for approximately 2 minutes. Appropriate portions of the brain were trimmed and placed on the ice-cold stage of a vibrating tissue slicer (Leica: VT-1000S). The stage was immediately filled with both oxygenated and frozen preparation buffers. The thickness of each tissue slice was 350 μm. Each slice was gently taken off the blade by a painting brush, trimmed, and immediately soaked in the oxygenated preparation buffer for 1 hour at room temperature. Then a slice was placed on the center of the MED probe. The slice was positioned to cover the 8×8 array. After positioning the slice, the MED probe was immediately placed in a box filled with 95% O^2 and 5% CO^2 and allowed to recover at 32° C. for 1 hour.
(§4) During electrophysiological recording, the slices on the MED probe were placed in a small CO2 incubator (Asahi Lifescience: model 4020) at 32° C. After recovery of the slice on the MED probe, the medium was replaced with DMEM/F-12 mixed medium without serum. The slices were on the interface, and contacted with a moisturized 95% O2 and 5% CO2 gas mixture. In this condition, the responses were recorded for more than 2 hours.
(§5) Drugs were purchased from RBI (diazepam, bicuculline, CNQX, 2-hydroxysaclofen) or Sigma (all other compounds). CX614 and CX691 were produced by Cortex Pharmaceuticals Inc. (Irvine, Calif.). All drugs were bath applied at known concentrations and were prepared daily from frozen aliquots.
(§6) Spontaneous and evoked field potentials at all 64 sites were recorded simultaneously with the multi-channel recording system (Matsushita Electric Industrial Co. Ltd, the “MED64 system”) at a 20 kHz sampling rate. In the case of the evoked response, one of the planar microelectrodes out of the 64 available was used for cathode of stimulating. Bipolar constant current pulses (10 to 50 μA, 0.1 msec) were produced by the data acquisition software through the isolator. The stimulating microelectrode was selected by the 64 switch-box. The measured field potentials were then subjected to analysis using the CSD analysis (Nicholson et al) discussed below.

Assay [2] has as its system hippocampal slice. Briefly: Carbachol induction of rhythmic activity in hippocampus (fields CA1 and CA3), MED array, FFT analysis. The following applies: for group mean dominant CA1 frequency / group mean dominant CA3 frequency: mean ± s.d.
Excerpt: as §1, §2, §3, §4, §5, §6

The test system of another assay is entorhinal cortex. The assay can be described thus: Carbachol-induced 40 Hz rhythm in retrohippocampal cortex, MED broad array. As for the experimental part: as §3, with “Then a slice was placed on the center of the MED probe. The slice was positioned to cover the 8×8 array. After positioning the slice, the MED probe was immediately placed in a box filled with 95% O^2 and 5% CO^2 and allowed to recover at 32° C. for 1 hour.” left out
During electrophysiological recording, the slices on the MED probe were placed in a small CO2 incubator (Asahi Lifescience: model 4020) at 32° C. […] In this condition, the responses were recorded for more than 2 hours.
Spontaneous and evoked field potentials at all 64 sites were recorded simultaneously with the multi-channel recording system (Matsushita Electric Industrial Co. Ltd, the “MED64 system”) at a 20 kHz sampling rate. […] The measured field potentials were then subjected to analysis using the CSD analysis (Nicholson et al) discussed below. […]

Setting [3] is: diazepam plus carbachol, FIG. 13C.

As to `N#Cc1cc2[nH]c(=O)c(=O)[nH]c2cc1[N+](=O)[O-]` [CNQX], in the assay on hippocampal slice [1] (20 μM), the “amplitude of carbachol-induced waves” value is “significantly diminished and/or eliminated”, the “effect on carbachol-induced high frequency rhythms” value was “greatly reduced”, the “power of carbachol-induced waves” value is listed as “significant decrease” and the “synchronized activity in carbachol-treated sample” value (“synchronized activity” for short) is on record as “very rapid loss”.
With `O=C1c2cc3c(cc2OC2CCCN12)OCCO3` (centres unmarked) [CX614], in the assay on hippocampal slice [1], the “power within the 20 Hz band” value is on record as “significant increase” and the “shift in the peak” value worked out at 10 Hz.
On to `O=C(c1ccc2nonc2c1)N1CCCCC1` [CX691], for which, in the assay with hippocampal slice [1], the “power within the 20 Hz band” value is “significant increase” and the “shift in the peak” value is 10 Hz.
Take `O=[N+]([O-])c1cc2nc(O)c(O)nc2cc1[N+](=O)[O-]` [DNQX]: in the assay with hippocampal slice [1] (20 μM), the “amplitude of carbachol-induced waves” value is recorded as “significantly diminished and/or eliminated”, the “power of carbachol-induced waves” value is “significant decrease” and the “synchronized activity” value is on record as “very rapid loss”.
As to `NS(=O)(=O)c1cccc2c1c([N+](=O)[O-])cc1nc(O)c(O)nc12` [NBQX], in the assay with hippocampal slice [1] (10 μM), the “amplitude of carbachol-induced waves” value is given as “significantly diminished and/or eliminated”, the “power of carbachol-induced waves” value is on record as “significant decrease” and the “synchronized activity” value is “very rapid loss”.
Turning to `CN1[C@@H]2CC[C@H]1C[C@@H](OC(=O)C(CO)c1ccccc1)C2` (some centres unmarked) [atropine], in the assay on hippocampal slice [1] (20 μM), the “effect on carbachol-induced high frequency rhythms” value was “completely eliminated”.
As for `C[N+](C)(C)CCOC(N)=O` [carbachol, carbyl choline chloride], in the assay on hippocampal slice [2] (after infusion of carbachol), the “slices with rhythmic activity in CA1 and CA3 close to or within the beta band (10-30 Hz)” value is recorded as 41 of 55. Further, in the assay on hippocampal slice [2] (all slices), the “group mean dominant CA1 frequency” value came out at 18.8±5.7 Hz and the “group mean dominant CA3 frequency” value was 16.4±5.7 Hz. Besides, in the assay with hippocampal slice [2] (beta instances alone), the “group mean dominant CA1 frequency” value came to 19.2±4.8 Hz and the “group mean dominant CA3 frequency” value amounted to 17.3±4.2 Hz. For the same molecule, the “peak of rhythmic activity in apical dendrites of hippocampal pyramidal cell fields” value in the assay on hippocampal slice [2] (carbachol 50 μM) was around 20 Hz. In the assay on hippocampal slice [2] (example slice of FIG. 6B), the “peak of the power spectrum” value was 20 Hz. Also, the “frequency of oscillations in deep layers of the medial entorhinal cortex” value in the assay with entorhinal cortex (carbachol 50 μM) was 40 Hz. Also, the “slices with forty Hz activity in the deep layers of the entorhinal cortex” value in the assay with entorhinal cortex (slices with appropriately positioned electrodes) is recorded as “each of the 15 slices”.
As for `CN1C(=O)CN=C(c2ccccc2)c2cc(Cl)ccc21` [diazepam], in the assay on hippocampal slice [1] (3 μM diazepam, 20 μM carbachol), the “amplitude of beta oscillations” value is “markedly enhanced” and the “change in the frequency of the waves” value is on record as “not accompanied by a significant change; also recorded: without much shift”. For the same molecule, in the assay on hippocampal slice [1] (setting [3]), the “increase in power within the 20 Hz band over carbachol alone” value is on record as “nearly threefold increase” and the “peak added at a higher (gamma) frequency” value was “approximately 40 Hz”.
As for picrotoxin, the “effect on carbachol-induced beta waves” value with hippocampal slice [1] (50 μM picrotoxin) is on record as “marked reduction”.
